For 21 compounds, GI50 and IC50 results are on record in patent publication US20230183243A1, “HETEROARYL DERIVATIVES AND PHARMACEUTICAL COMPOSITION COMPRISING SAME AS ACTIVE INGREDIENT” (VORONOI INC., priority 2019, published 2023).

Bounds are passed on as bounds.

In one assay the test system is MDA-MB-231 cells. Briefly: Inhibition of proliferation of triple-negative breast cancer cells, CellTiter-Glo. The format is cell-based. To be noted: Homo sapiens, 120 h; MDA-MB-231, cultured for 5 days. On the procedure:
Specifically, the following test was performed in order to evaluate the inhibitory activity of the compound according to the present invention against the cell proliferation in triple-negative breast cancer cells (TNBCs).
Cells were seeded in 180 μL of a culture broth at a density of 2,000 to 3,000 cells/well in a white clear bottom 96-well plate (Corning) according to the growth ability of each cell, and then cultured for 24 hours under conditions of 5% CO2 and 37° C. Thereafter, the compound was prepared by diluting a 10 mM stock solution three-fold with 100% DMSO at a total of 12 concentrations so that a peak concentration of the compound was in a range of 10 mM to 0.05 μM, and the diluted compound was then diluted in each cell culture medium so that a final concentration of the compound was in a range of 100 μM to 0.5 nM. 20 μL of a diluted solution diluted with a medium was added to the cell solution in which cells were seeded in the 96-well plate on the previous day so that a final concentration of the diluted solution was in a range of 10 μM to 0.05 nM. Each of the cells was cultured for 5 days. To check cell viability, a mixture provided in a CellTiter-Glo® Luminescent Cell Viability Assay Kit (Promega) was added to each of the cultured cell media, and cultured for another 10 minutes under a condition of 37° C. Then, a degree of luminescence (fluorescence) was measured. A degree of inhibition of the cell growth according to the treatment concentration of each of the compounds was calculated based on the fluorescence of the solvent control cells which were not treated with the compound.
On the technique in general: Cellular ATP, detected with luciferase, serves as a proxy for viable cell number.

The next assay concerns the target T1, TTK (Homo sapiens, UniProt P33981).
T1 sequence (P33981 1-857): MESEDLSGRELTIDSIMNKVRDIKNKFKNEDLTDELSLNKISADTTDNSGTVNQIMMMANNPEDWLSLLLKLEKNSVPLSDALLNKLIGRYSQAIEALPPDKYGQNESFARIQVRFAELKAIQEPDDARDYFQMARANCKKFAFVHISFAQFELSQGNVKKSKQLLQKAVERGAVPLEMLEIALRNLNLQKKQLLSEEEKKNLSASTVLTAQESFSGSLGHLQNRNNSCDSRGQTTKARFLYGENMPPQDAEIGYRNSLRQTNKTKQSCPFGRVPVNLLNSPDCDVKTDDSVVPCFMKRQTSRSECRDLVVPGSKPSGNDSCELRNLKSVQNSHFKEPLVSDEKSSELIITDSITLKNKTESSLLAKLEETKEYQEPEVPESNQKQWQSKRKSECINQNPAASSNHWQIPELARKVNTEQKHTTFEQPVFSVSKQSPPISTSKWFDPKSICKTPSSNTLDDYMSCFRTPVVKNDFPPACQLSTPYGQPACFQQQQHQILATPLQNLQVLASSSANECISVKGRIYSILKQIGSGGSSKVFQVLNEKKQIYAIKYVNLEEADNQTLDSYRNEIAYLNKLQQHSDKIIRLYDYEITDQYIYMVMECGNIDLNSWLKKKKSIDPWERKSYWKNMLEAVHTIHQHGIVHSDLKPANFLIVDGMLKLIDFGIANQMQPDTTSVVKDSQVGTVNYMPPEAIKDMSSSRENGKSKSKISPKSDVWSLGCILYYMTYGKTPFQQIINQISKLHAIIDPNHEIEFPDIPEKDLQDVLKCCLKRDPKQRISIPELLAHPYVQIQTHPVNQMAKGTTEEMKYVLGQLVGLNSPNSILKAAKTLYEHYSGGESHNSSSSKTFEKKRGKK
Briefly: TTK enzyme activity, ADP-Glo kinase assay. The format is biochemical. The arrangement: purchased SignalChem T20-10G. To be noted: purified human TTK, ATP 10 μM, 25° C., 2 hours. On the procedure: To evaluate an inhibitory activity of the compound according to the present invention against TTK (MPS1), an experiment was performed as follows.
Each of the Example compounds was reacted with a purified human TTK (SignalChem #T20-10G) enzyme to evaluate an ability to inhibit an enzyme using a method as described below. A composition of 40 mM Tris-HCl (pH 7.4), 20 mM MgCl2, 0.5 mg/mL BSA, and 50 μM DTT was used as a reaction buffer, and all reactions of test substances were performed in the reaction buffer. […] In the test, purified ATP (10 μM) and an enzyme substrate (0.2 μg) were reacted with a human TTK (25 ng) enzyme at 25° C. for 2 hours, and the enzyme activity was determined using an in vitro ADP-Glo™ kinase assay (Promega). […] The degree of inhibition of the enzyme activity according to the treatment concentration of each of the compounds was calculated based on the fluorescence of the enzyme activity of the solvent control which was not treated with the compound.
In general terms: ADP-Glo turns the ADP formed in a reaction into a luminescent signal.

`CCC(C)Nc1nc(Nc2ccc(N3CCCC3=O)cc2OC)nc2[nH]cc(C#N)c12` (stereo in doubt) [Example 68, (S)-4-(sec-butylamino)-2-((2-methoxy-4-(2-oxopyrrolidin-1-yl)phenyl)amino)-7H-pyrrolo[2,3-d] pyrimidine-5-carbonitrile] had a 50% growth inhibitory concentration (GI50) with MDA-MB-231 cells of less than 0.1 µM. Also, at TTK, the IC50 is less than 0.05 µM.
On the same counts, the results for `CC[C@H](C)Nc1nc(Nc2ccc(-c3ccnn3C)cc2OC)nc2[nH]cc(C#N)c12` [Example 1, (S)-4-(sec-butylamino)-2-((2-methoxy-4-(1-methyl-1H-pyrazol-5-yl)phenyl)amino)-7H-pyrrolo[2,3-d] pyrimidine-5-carbonitrile 2,2,2-trifluoroacetate] are less than 0.1 µM and less than 0.05 µM.
In the assay with MDA-MB-231 cells, `COc1cc(-c2ccn(C)n2)ccc1Nc1nc(NC2CCCC2)c2c(C#N)c[nH]c2n1` [Example 2, 4-(cyclopentylamino)-2-((2-methoxy-4-(1-methyl-1H-pyrazol-3-yl)phenyl)amino)-7H-pyrrolo[2,3-d] pyrimidine-5-carbonitrile] showed a GI50 of less than 0.1 µM. At TTK, this compound returned a half-inhibitory concentration (IC50) of less than 0.05 µM.
On the same counts, the results for `COc1cc(N2CCOC2=O)ccc1Nc1nc(NC2CCCCC2)c2c(C#N)c[nH]c2n1` [Example 3, 4-(cyclohexylamino)-2-((2-methoxy-4-(2-oxooxazolidin-3-yl)phenyl)amino)-7H-pyrrolo[2,3-d] pyrimidine-5-carbonitrile] are 0.1 to 1 µM and less than 0.05 µM.
As for `COc1cc(-c2ccnn2C)ccc1Nc1nc(NC2CCCCC2)c2cc[nH]c2n1` [Example 4, N^4-cyclohexyl-N^2-(2-methoxy-4-(1-methyl-1H-pyrazol-5-yl)phenyl)-7H-pyrrolo[2,3-d] pyrimidine-2,4-diamine], the GI50 with MDA-MB-231 cells is 0.1 to 1 µM.
With `COc1cc(-c2ccnn2C)ccc1Nc1nc(NC2CCCCC2)c2c(Cl)c[nH]c2n1` [Example 5, 5-chloro-N^4-cyclohexyl-N^2-(2-methoxy-4-(1-methyl-1H-pyrazol-5-yl)phenyl)-7H-pyrrolo[2,3-d] pyrimidine-2,4-diamine], the 50% growth inhibitory concentration (GI50) in the assay with MDA-MB-231 cells was greater than 1 µM.
The compound `COc1cc(-c2ccnn2C)ccc1Nc1nc(NC2CCCCC2)c2c(C(F)(F)F)c[nH]c2n1` [Example 6, N^4-cyclohexyl-N^2-(2-methoxy-4-(1-methyl-1H-pyrazol-5-yl)phenyl)-5-(trifluoromethy1)-7H-pyrrolo[2,3-d] pyrimidine-2,4-diamine] gave a GI50 in the assay with MDA-MB-231 cells greater than 1 µM.
`COc1cc(-c2ccnn2C)ccc1Nc1nc(NCC2CCCC2)c2c(C#N)c[nH]c2n1` [Example 8, 4-((cyclopentylmethyl)amino)-2-((2-methoxy-4-(1-methyl-1H-pyrazol-5-yl)phenyl)amino)-7H-pyrrolo[2,3-d] pyrimidine-5-carbonitrile] yielded a half-inhibitory concentration (IC50) on TTK of 0.05 to 0.2 µM.
Consider `CNc1nc(Nc2ccc(-c3ccnn3C)cc2OC)nc2[nH]cc(C#N)c12` [Example 9, 2-((2-methoxy-4-(1-methyl-1H-pyrazol-5-yl)phenyl)amino)-4-(methylamino)-1H-pyrrolo[2,3-d] pyrimidine-5-carbonitrile], for which, in the assay on MDA-MB-231 cells, the 50% growth inhibitory concentration (GI50) was greater than 1 µM. In addition, the IC50 against TTK was less than 0.05 µM.
On to `CC[C@@H](C)Nc1nc(Nc2ccc(-c3ccnn3C)cc2OC)nc2[nH]cc(C#N)c12` [Example 10, (R)4-(sec-butylamino)-2-((2-methoxy-4-(1-methyl-1H-pyrazol-5-yl)phenyl)amino)-7H-pyrrolo[2,3-d] pyrimidine-5-carbonitrile 2,2,2-trifluoroacetate], for which, in the assay on MDA-MB-231 cells, the GI50 was less than 0.1 µM. The compound further showed an IC50 against TTK of less than 0.05 µM.
`COCCNc1nc(Nc2ccc(-c3ccnn3C)cc2OC)nc2[nH]cc(C#N)c12` [Example 13] came in with a half-maximal inhibitory concentration (IC50) on TTK of less than 0.05 µM.
`COc1cc(-c2ccnn2C)ccc1Nc1nc(NC2CCOCC2)c2c(C#N)c[nH]c2n1` [Example 15, 2-((2-methoxy-4-(1-methyl-1H-pyrazol-5-yl)phenyl)amino)-4-((tetrahydro-2H-pyran-4-yl)amino)-7H-pyrrolo[2,3-d] pyrimidine-5-carbonitrile] gave a half-inhibitory concentration (IC50) against TTK of less than 0.05 µM.
For the compound `COc1cc(-n2cc(C)nc2C)ccc1Nc1nc(NC2CCCCC2)c2c(C#N)c[nH]c2n1` [Example 34, 4-(cyclohexylamino)-2-((4-(2,4-dimethyl-1H-imidazol-1-yl)-2-methoxyphenyl)amino)-7H-pyrrolo[2,3-d] pyrimidine-5-carbonitrile], the concentration for 50% growth inhibition (GI50) in the assay on MDA-MB-231 cells was less than 0.1 µM.
As for `CCOc1cc(-c2ccnn2C)ccc1Nc1nc(NC2CCCCC2)c2c(C#N)c[nH]c2n1` [Example 36, 4-(cyclohexylamino)-2-((2-ethoxy-4-(1-methyl-1H-pyrazol-5-yl)phenyl)amino)-7H-pyrrolo[2,3-d] pyrimidine-5-carbonitrile], the GI50 in the assay with MDA-MB-231 cells was less than 0.1 µM.
As to `Cn1nccc1-c1ccc(Nc2nc(NC3CCCCC3)c3c(C#N)c[nH]c3n2)cc1` [Example 37, 4-(cyclohexylamino)-2-((4-(1-methyl-1H-pyrazol-5-yl)phenyl)amino)-7H-pyrrolo[2,3-d] pyrimidine-5-carbonitrile], the GI50 with MDA-MB-231 cells was less than 0.1 µM.
`COc1cc(-c2ccnn2C)ccc1Nc1nc(OC2CCCCC2)c2c(C#N)c[nH]c2n1` [Example 45, 4-(cyclohexyloxy)-2-((2-methoxy-4-(1-methyl-1H-pyrazol-5-yl)phenyl)amino)-7H-pyrrolo[2,3-d] pyrimidine-5-carbonitrile] gave a GI50 with MDA-MB-231 cells of less than 0.1 µM.
`COc1cc(N2CCCC2=O)ccc1Nc1nc(NC2CCOCC2)c2c(C#N)c[nH]c2n1` [Example 74, 2-((2-methoxy-4-(2-oxopyrrolidin-1-yl)phenyl)amino)-4-((tetrahydro-2H-pyran-4-yl)amino)-7H-pyrrolo[2,3-d] pyrimidine-5-carbonitrile] registered a GI50 with MDA-MB-231 cells greater than 1 µM.
In turn, `COc1cc(N2CCCC2=O)ccc1Nc1nc(NCC(C)(C)C)c2c(C#N)c[nH]c2n1` [Example 77, 2-((2-methoxy-4-(2-oxopyrrolidin-1-yl)phenyl)amino)-4-(neopentylamino)-7H-pyrrolo[2,3-d] pyrimidine-5-carbonitrile] gave a concentration for 50% growth inhibition (GI50) with MDA-MB-231 cells of 0.1 to 1 µM.
The compound `CCOc1cc(N2CCCC2=O)ccc1Nc1nc(NC2CCCCC2)c2c(C#N)c[nH]c2n1` [Example 78, 4-(cyclohexylamino)-2-((2-ethoxy-4-(2-oxopyrrolidin-1-yl)phenyl)amino)-7H-pyrrolo[2,3-d] pyrimidine-5-carbonitrile] came in with a GI50 in the assay with MDA-MB-231 cells of 0.1 to 1 µM.
In the case of `N#Cc1c[nH]c2nc(Nc3ccc(N4CCCC4=O)cc3)nc(NC3CCCCC3)c12` [Example 80, 4-(cyclohexylamino)-2-((4-(2-oxopyrrolidin-1-yl)phenyl)amino)-7H-pyrrolo[2,3-d] pyrimidine-5-carbonitrile], the 50% growth inhibitory concentration (GI50) in the assay on MDA-MB-231 cells is less than 0.1 µM.
With `COc1cc(N2CCOCC2=O)ccc1Nc1nc(NC2CCCCC2)c2c(C#N)c[nH]c2n1` [Example 81, 4-(cyclohexylamino)-2-((2-methoxy-4-(3-oxomorpholino)phenyl)amino)-7H-pyrrolo[2,3-d] pyrimidine-5-carbonitrile], the GI50 in the assay on MDA-MB-231 cells was less than 0.1 µM.

For orientation: GI50 means the concentration that inhibits growth by half. Low readings indicate greater sensitivity of the cells, high ones lower sensitivity of the cells. Usually IC50 stands for the point on the concentration scale where inhibition reaches its midpoint. A higher IC50 goes with weaker potency.
